Laboratory results published in patent publication US10654838B2, “Aminopyridine compounds useful as inhibitors of protein prenylation” (INSTITUT NATIONAL DE LA SANTE ET DE LA RECHERCHE MEDICALE …, priority 2014, dated 2020).

What was measured:
[1] = test system: prelamin A farnesylation (nuclear localization of prelamin A) in HGPS MSCs; assay: Prelamin A localization cell-based assay; parameters: species or system human; conditions: for EC50: Homo sapiens, 48 h treatment, dose-response
Method: 2000 HGPS MSCs were plated in black 384-well clear-bottom plates (Corning). After 48 h of drug treatment, cells were fixed in 4% paraformaldehyde (15 minutes, room temperature). Permeabilization, blocking and primary hybridization steps were done concomitantly in a PBS solution supplemented with 0.1% triton X-100 and 1% BSA (Sigma-Aldrich, St. Louis, USA) and rabbit anti-prelamin A (ANTOO45, Diatheva) overnight at 4° C. Cells were stained with the species-specific fluorophore-conjugated secondary anti-rabbit antibody (Invitrogen) (one hour, room temperature) and nuclei were visualized with Hoechst 33342. These steps were automated using a washing/staining station (ELx405 Biotek, RapidStak Thermo, Multidrop Labsystems). Prelamin A localization was analyzed with an ayScan VTI HCS Reader (Cellomics). The first channel was used for nucleus identification (Hoechst 33342 staining) and the second one to identify prelamin A staining. Pictures were acquired with a 5× objective in high-resolution camera mode and were analyzed using the Spot Detector bioapplication. The robustness of the assay was evaluated using the Z′ factor calculated as ollows Z′=1−[3(SDP+SDN)/(MP−MN)] where MP and MN correspond to the means of the positive (tipifarnib 1 μM) and negative (DMSO 0.1%) controls, respectively, and SDP and SDN correspond to their standard deviation.
The primary screen was conducted on Biocell 1800 (Agilent). […]
Data analysis of the screening was performed using a customized Hiscreen application (Discngine, Paris, France) connected to Spotfire software (Tibco Co). Screening robustness was evaluated by calculating for each plate the Z'factor on the percentage of prelaminA nuclei parameter. […]
This study was performed on MSCs derived from HGPS iPS cells, differentiated as previously described (Blondel et al., 2014, Stem Cells Transl Med, VOL. 3: 510-519) and used after ten passages of amplification. […] A high throughput immunostaining assay was developed to robustly quantify prelamin A expression and localization in 384-well plates. […]

HDJ2 = assay: Western blot analysis of HDJ2 farnesylation; format: cell-based, human
HGPS MSCs [2] = assay: Nuclear shape abnormalities (lamin A/C immunostaining); format: cell-based, human; conditions: 48 h, lamin A/C staining
Method: In the 4-steps protocol, cells were fixed in 4% paraformaldehyde (15 minutes, room temperature) before permeabilization and blocking in PBS supplemented with 0.1% triton X-100 and 1% BSA (Sigma-Aldrich, St. Louis, USA). Primary antibodies were incubated one hour at room temperature in blocking buffer. Antibodies included mouse anti-lamins A/C (clone JOL2, Millipore, Billerica, USA), rabbit anti-prelamin A (ANTOO45, Diatheva) and anti-Ki67 (clone Ki-S5, MAB4190, Millipore, Billerica, USA). Cells were stained with the species-specific fluorophore-conjugated secondary antibody (Invitrogen) (one hour, room temperature) and nuclei were visualized with Hoechst 33342.

HGPS MSCs [3] = assay: Live cell imaging (cell density); format: cell-based, human; conditions: 7 days
Method: HGPS MSCs were seeded at 2500 cells per well in 96-well plates and cultivated during 7 days in presence of the drugs. Cell density was monitored using an IncuCyte ZOOM microscope (Essen Bioscience). Each value corresponds to the mean of cell densities of four pictures taken in three independent wells.

FT = molecular target: T1, FT (Homo sapiens, UniProt P49354+P49356); assay: FT activity assay (Farnesyltransferase [3H] SPA); format: biochemical; conditions: concentration inducing 50% of the maximum inhibiting effect of the compound
T1 construct: Reactions were started by adding 40 μL of treated or untreated cell lysate; endogenous in cells; host or cells: HGPS MSCs (cell lysate)
Method: (§1) Cell pellet of HGPS MSCs were resuspended in 25 mM Tris-HCl pH 7.4, 1 mM DTT, 1 mM MgCl2, 1 EDTA, 1 mM PMSF and centrifuged at 10,000×g for 10 min at 4° C. Protein content was determined using Lowry's method. Aliquots of cell lysate containing 100 μg of total proteins were incubated with tested substances at 37° C. for 30 min.
FT activity was determined by Famesyltransferase [3H] SPA enzyme assay (Amersham Life Science, Buckinghamshire, England). Briefly, FT activity was assayed in 20 μl of assay buffer containing 50 mmol/L Hepes, 30 mmol/L MgCl2, 20 mmol/L KCl and 5 mmol/L dithiothreitol, 20 μl of [3H]-FPP (12 pmol) and 20 μl of biotin lamin B. Reactions were started by adding 40 μL of treated or untreated cell lysate and incubated for 1 hour at 37° C. Reactions were stopped by the addition of 150 μL of stop reagent containing SPA bead and counted in a scintillation counter. FT activity was expressed as pmoles of incorporated [3H]-FPP into biotin lamin-B peptide per minute per milligram of total proteins (pmol/min/mg prot). Parallel samples were assayed to evaluate the total and the nonspecific radioactivity. In all experiments enzyme assays were carried out in triplicate.

HMGCR = molecular target: T2, HMGCR (Homo sapiens, UniProt P04035); assay: HMGCR colorimetric activity assay; format: biochemical
T2 construct: oxidation of NADPH by the catalytic subunit of HMGCR in the presence of the substrate HMG CoA; purchased Sigma-Aldrich
T2 sequence (P04035 340-888 limits assumed): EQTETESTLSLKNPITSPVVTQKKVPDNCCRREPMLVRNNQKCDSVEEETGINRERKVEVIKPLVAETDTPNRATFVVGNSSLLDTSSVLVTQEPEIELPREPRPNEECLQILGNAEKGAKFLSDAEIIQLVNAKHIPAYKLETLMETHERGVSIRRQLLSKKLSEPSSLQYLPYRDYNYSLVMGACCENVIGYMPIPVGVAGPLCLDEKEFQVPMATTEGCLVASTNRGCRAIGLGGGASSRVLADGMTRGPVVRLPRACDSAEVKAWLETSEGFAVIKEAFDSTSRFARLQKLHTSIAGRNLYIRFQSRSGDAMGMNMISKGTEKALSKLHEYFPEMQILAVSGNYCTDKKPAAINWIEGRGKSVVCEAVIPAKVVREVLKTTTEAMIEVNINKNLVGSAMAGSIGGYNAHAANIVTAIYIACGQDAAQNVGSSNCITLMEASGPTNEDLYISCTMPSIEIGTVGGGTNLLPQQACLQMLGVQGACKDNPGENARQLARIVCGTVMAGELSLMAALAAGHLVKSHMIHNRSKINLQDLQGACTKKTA
Method: HMGCR activity was measured using GCoA Reductase Assay Kit (Sigma-Aldrich) according to the manufacturer's protocol. The assay is based on the spectrophotometric measurement of the decrease in absorbance at 340 nm, which represents the oxidation of NADPH by the catalytic subunit of HMGCR in the presence of the substrate HMG CoA.

FPPS = molecular target: T3, FPPS (Homo sapiens, UniProt P14324); assay: FPPS activity assay; format: biochemical; parameters: endogenous in cells; host or cells: HGPS MSCs (cell lysate); conditions: concentration inducing 50% of the maximum inhibiting effect of the compound
T3 sequence (P14324 1-419): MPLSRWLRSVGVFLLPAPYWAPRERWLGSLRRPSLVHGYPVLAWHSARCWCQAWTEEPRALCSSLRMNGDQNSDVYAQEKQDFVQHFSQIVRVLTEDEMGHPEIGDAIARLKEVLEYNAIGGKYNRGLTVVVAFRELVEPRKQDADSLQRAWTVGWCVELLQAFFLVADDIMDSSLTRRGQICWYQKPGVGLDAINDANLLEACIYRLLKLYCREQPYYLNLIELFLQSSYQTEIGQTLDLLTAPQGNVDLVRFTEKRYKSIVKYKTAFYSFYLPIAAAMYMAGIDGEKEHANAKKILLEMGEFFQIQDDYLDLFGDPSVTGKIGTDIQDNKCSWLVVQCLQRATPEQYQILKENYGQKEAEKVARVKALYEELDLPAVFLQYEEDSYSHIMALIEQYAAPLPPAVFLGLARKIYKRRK
Method: as §1
FPPS assay was carried out with some modifications of the procedure of Krisans et al. (Krisans et al., 1994, The Journal of biological chemistry VOL. 269: 14165-14169) and described by Gupta et al. (Gupta et al., 1999, Eur J Med Chem, VOL. 43: 2751-2767). Briefly, FPPS was assayed in 150 μL containing 25 mmol/L Hepes, pH=7, 2 mmol/L MgCl2, 1 mmol/L dithiothreitol, 5 mmol/L KF, 1% A noctyl-β-glucopyranoside, 3.3 μmol/L [4-14C] IPP (18 Ci/mmol), 3 μmol/L unlabeled IPP and 20 μmol/L geranyl diphosphate. Reactions were started by adding 40 μL of treated or untreated cell lysate and incubated for 45 min at 37° C. Reactions were stopped by the addition of 150 μL 2.5 mol/L HCl in 80% ethanol containing 100 μg/mL farnesol as a carrier. The samples were hydrolyzed for 30 min at 37° C. to convert the FPP to farnesol and neutralized by the addition of 150 μL of 10% NaOH. The reaction product (farnesol) was extracted into 1 mL of N-hexane and an aliquot (200 μL) of the organic phase was used for radioactivity counting. Parallel samples were assayed to evaluate the total and the nonspecific radioactivity. In all experiments, enzyme assays were carried out in triplicate.

prelamin A = assay: Western immunoblotting of prelamin A; format: cell-based, human; conditions: HGPS MSCs, optimal concentration
Method: Whole-cell lysates of MSC were collected, separated by SDS-PAGE, and transferred onto PVPF membrane by liquid transfer method. Blots were blocked in 10% skim milk (Bio-Rad) in tween 0.1% tris-buffered saline (TTBS) 1× one hour at room temperature. The primary antibodies used were a mouse anti-lamins A/C 1:200 (Millipore, JOL2), a rabbit anti-prelamin A 1/100 (ANTOO45, Diatheva) and a β-actin 1/200000 (Sigma). Membranes were incubated during the night at 4° C. Antigen-antibody binding was detected using horseradish peroxidaseconjugated species-specific secondary antibodies (GE-Healthcare, Little Chalfont, UK) followed by enhanced chemiluminescence Western blotting detection reagents (Perkin-Elmer, Waltham, USA).

EC50 [1] [nM] | SMILES | unfarnesylated form of HDJ2 (HDJ2) | rescue of nuclear shape abnormalities (HGPS MSCs [2]) | other results
1500 | Cc1cccc(CN2CCN(c3nccc(C(C#N)c4ccccn4)n3)CC2)c1 (stereo not drawn) [Mono-AP21, {2-[4-(3-Methyl-benzyl)-piperazin-1-yl]-pyrimidin-4-yl}-pyridin-2-yl-acetonitrile] |  |  | 
2000 | N#CC(c1ccccn1)c1ccnc(N2CCN(Cc3cccc(F)c3)CC2)n1 (stereo not drawn) [Mono-AP28, {2-[4-(3-Fluoro-benzyl)-piperazin-1-yl]-pyrimidin-4-yl}-pyridin-2-yl-acetonitrile] |  |  | 

Further lines, the molecule ahead of its results:

SMILES | EC50 [1] [nM] | unfarnesylated form of HDJ2 (HDJ2) | rescue of nuclear shape abnormalities (HGPS MSCs [2]) | other results
CCOC(=O)CN1CCN(c2nccc(C(C#N)c3ccccn3)n2)CC1 (stereo not drawn) [Mono-AP25, {4-[4-(Cyano-pyridin-2-yl-methyl)-pyrimidin-2-yl]-piperazin-1-yl}-acetic acid ethyl ester] |  |  |  | efficiency on prelamin A farnesylation (in words) ([1]; dose response): decrease in efficiency
N#CC(c1ccccn1)c1ccnc(N2CCC(O)(Cc3ccccc3)CC2)n1 (stereo not drawn) [Mono-AP3, [2-(4-Benzyl-4-hydroxy-piperidin-1-yl)-pyrimidin-4-yl]-pyridin-2-yl-acetonitrile] |  | increase of the unfarnesylated form of the protein | restoring HGPS MSCs nuclear shape defects at levels not significantly different from the FTI tipifarnib | cytostatic effect in long term live imaging cultures (HGPS MSCs [3]): less cytostatic than the FTI tipifarnib; IC50 (FT): 0.35 µM; IC50 (μM) HMGCR (HMGCR): No inhibition; IC50 (FPPS): 5.54 µM
CCCc1c(C(=O)N2CCN(c3cc(N(C)c4cccc(C)c4)ncn3)CC2)cnn1-c1ccccc1 [Di-AP2, {4-[6-(Methyl-m-tolyl-amino)-pyrimidin-4-yl]-piperazin-1-yl}-(1-phenyl-5-propyl-1H-pyrazol-4-yl)-methanone] |  | increase of the unfarnesylated form of the protein | restored significantly | prelamin A level (Western blot) (prelamin A): increased
